# In paper PMC11823679, “Protamine protects against vancomycin-induced kidney injury” (Antimicrobial Agents and Chemotherapy, 2025):
# Experiments:
# Urinary KIM-1 = Urinary KIM-1 kidney injury in rats given vancomycin and/or protamine; conditions: for Contrast KIM-1: urinary KIM-1, vancomycin 150 mg/kg i.v., protamine sulfate 1.5 mg/kg i.v.
# Experimental: Male Sprague-Dawley rats (n = 19; age 8–10 weeks; 268–304 g; Envigo, Indianapolis, IN, USA) underwent double jugular catheterization ([33]) (Fig. 3A). Surgery was performed under ketamine (100 mg/kg of body weight) and xyalzine (10 mg/kg of body weight) anesthesia with buprenorphine (0.02 mg/kg of body weight) given post-operatively for pain management. Animals were allowed to recover 4 days before the administration of any drug. Animals were housed in metabolic cages starting 1 day prior to day 0 with access to food and water ad libitum for the duration of the study (Fig. 3B).
# Animals were divided into three experimental treatment protocols. Using a dedicated jugular vein for dosing, the animals received clinical grade intravenous protamine and/or vancomycin in doses allometrically scaled to humans according to the following protocols: (i) protamine sulfate (1.5 mg/kg of body weight) and vancomycin (150 mg/kg of body weight) (n = 6); (ii) protamine only (1.5 mg/kg of body weight) with saline sham (sham for volume of vancomycin) (n = 7); or (iii) vancomycin only (150 mg/kg of body weight) with saline sham (sham for volume of protamine) (n = 6) ([34][–][36]). Saline sham was given to match the volumes of protamine and vancomycin doses to maintain euvolemia. On day 0, all animals received only iohexol (51.8 mg/day) intravenously to establish baseline GFR measurements. Drugs were administered as described above by treatment protocols to all groups on days 1–4. Infusion times for each of the drugs include (i) protamine sulfate, 5 minutes; (ii) vancomycin and iohexol, 2 minutes; and (iii) saline sham, 5 or 2 minutes depending on what the sham was replacing.
# Urine samples were collected daily, and volumes were measured starting from day 0 to day 4. Samples were centrifuged at 500 g for 10 minutes, and the resulting supernatant was aliquoted (1.5 mL) and stored at −80°C for renal biomarker analysis later.
# Urinary samples were analyzed for KIM-1 using the Milliplex MAP Rat Kidney Toxicity Magnetic Bead Panel 1 (EMD Millipore Corporation, Charles, MO, USA) according to the manufacturer’s directions and as previously described ([34], [36], [37]). Briefly, neat urine aliquots were mixed with monoclonal antibody-coated magnetic microbeads (Bead Panel 1) and run on a 96-well plate, which also included a standard curve. Biomarker data were acquired, and concentrations were analyzed using Belysa Immunoassay Curve-Fitting Software V1 (MilliporeSigma, Darmstadt, Germany). The amount of urinary KIM-1 excreted over the 24-h collection period was obtained by multiplying the urinary concentration by 24-h urinary volume.
# An omnibus test, i.e., joint tests (multi-degree of freedom) of the interaction and main effects, which is similar to the F test in ANOVA, was used initially (STATA 17.0 BE, StataCorp LLC, College Station, TX, USA). Only models with significant interaction at P < 0.05 were selected for post hoc analysis (i.e., identification of the difference between treatment groups and days). Margins were calculated for a full factorial of the variables, i.e., main effects for each variable and interactions. Referent groups were pre-treatment baseline values and protamine alone as a treatment, except where noted. […] LOWESS graphs were produced in R version 4.2.2 using ggplot2. […] All tests were two-tailed; a P < 0.05 was required for statistical significance. Graphs for cellular studies were generated using GraphPad version 9.3.1 and were fit with a log(inhibitor) vs normalized response function after log transformation.
# acute kidney injury = conditions: cited from earlier work
# From the text: Vancomycin is one of the most widely used antibiotics within United States in-patient healthcare systems, accounting for 11.9% of all antibiotic use for inpatient antimicrobials (1,258 out of 10,612) in a 2015 hospital survey ([1]). As a tricyclic glycopeptide, it is primarily indicated for severe Gram-positive bacterial infections, including methicillin-resistant Staphylococcus aureus (MRSA) ([2]). For about 70 years now, vancomycin has remained a first-line antibiotic widely used and studied across people of all ages. Despite its efficacy in the treatment of MRSA infections, one common limit ... || In humans, VAN (creatinine defined) ([41]) occurs between an interquartile range of 6–13 days ([42]), and creatinine is known to lag behind GFR ([43]). Serum creatinine is the most commonly utilized biomarker to classify AKI in patients ([41], [44][–][46]); however, creatinine is non-sensitive, non-specific, and slowly reactive to kidney function as compared to GFR ([47]). GFR can drop 50% before changes in SCr are detected ([48][–][50]). As such, acute injuries from vancomycin take a median of 6 days to be detectable with creatinine alone ([51]). Therefore, this study focused on the pre-clini ... || Originally derived from salmon fish sperm (salmine), protamine is a highly positively charged protein consisting of 32 amino acids. Currently, it is widely used as an effective agent to neutralize heparin using electrostatic bonds made between the cationic arginine groups of protamine and the anionic heparin in a 1:1 ratio ([6]). Specifically, protamine shares binding sites with heparin (current target for FDA-approved use) and megalin ([30], [31]). On this note, a clinical limitation for the use of protamine arises for patients who require heparin infusions, such as post-diabetic foot infecti ...
# megalin = system: megalin; design: method as in Hori et al. ([18]); conditions: quartz crystal microbalance analysis, ref Hori et al. ([18]), cited from earlier work
# From the text: Hori et al. ([18]) performed a study to evaluate the binding of megalin to vancomycin and cisplatin, as well as aminoglycosides and colistin. They utilized quartz crystal microbalance analysis to assess the dir ...
# [1] = within group, day 2 vs 1 (baseline)
# [2] = within group, day 3 vs 1 (baseline)
# [3] = within group, day 4 vs 1 (baseline)
compound,measurement,setting,value
CN[C@H](CC(C)C)C(=O)N[C@H]1C(=O)N[C@@H](CC(N)=O)C(=O)N[C@H]2C(=O)N[C@H]3C(=O)N[C@H](C(=O)N[C@H](C(=O)O)c4cc(O)cc(O)c4-c4cc3ccc4O)[C@H](O)c3ccc(c(Cl)c3)Oc3cc2cc(c3O[C@@H]2O[C@H](CO)[C@@H](O)[C@H](O)[C@H]2O[C@H]2C[C@](C)(N)[C@H](O)[C@H](C)O2)Oc2ccc(cc2Cl)[C@H]1O [Vancomycin],KIM-1 compared to protamine alone (in words),"Urinary KIM-1; day 2, 24 h after drug administration",significantly increased urinary KIM-1
same,KIM-1 change from baseline of day 1 (in words),"Urinary KIM-1; each animal group compared to itself, 4 days",elevated KIM-1 on days 2 and 3
same,Contrast KIM-1,"Urinary KIM-1; vs protamine alone, day 1 (prior to any drug), n = 6-7",0.72 ng/24 h
same,Contrast KIM-1,"Urinary KIM-1; vs protamine alone, day 2 (24 h after drug administration)",24.92 ng/24 h
same,Contrast KIM-1,"Urinary KIM-1; vs protamine alone, day 2 (24 h after drug administration), listed as vancomycin",24.9 ng/24 h
same,Contrast KIM-1,"Urinary KIM-1; vs protamine alone, day 3",20.88 ng/24 h
same,Contrast KIM-1,"Urinary KIM-1; vs protamine alone, day 4",9.00 ng/24 h
same,Contrast KIM-1,Urinary KIM-1; [1],24.81 ng/24 h
same,Contrast KIM-1,Urinary KIM-1; [2],20.50 ng/24 h
same,Contrast KIM-1,Urinary KIM-1; [3],8.55 ng/24 h
same,95% confidence interval of contrast KIM-1,"Urinary KIM-1; vs protamine alone, day 1",(−22.3–23.8) ng/24 h
same,95% confidence interval of contrast KIM-1,"Urinary KIM-1; vs protamine alone, day 2",(1.9–48.0) ng/24 h
same,95% confidence interval of contrast KIM-1,"Urinary KIM-1; vs protamine alone, day 2, listed as vancomycin",1.87–48.0 ng/24 h
same,95% confidence interval of contrast KIM-1,"Urinary KIM-1; vs protamine alone, day 3",(−2.2–43.9) ng/24 h
same,95% confidence interval of contrast KIM-1,"Urinary KIM-1; vs protamine alone, day 4",(−14.0–32.0) ng/24 h
same,95% confidence interval of contrast KIM-1,Urinary KIM-1; [1],(5.2–44.4) ng/24 h
same,95% confidence interval of contrast KIM-1,Urinary KIM-1; [2],(0.9–40.1) ng/24 h
same,95% confidence interval of contrast KIM-1,Urinary KIM-1; [3],(−11–28.1) ng/24 h
same,"Time to VAN (creatinine defined), interquartile range","acute kidney injury; humans, after treatment initiation",6 to 13 days
same,Median time for acute injury to be detectable with creatinine alone,acute kidney injury; humans,6 days
same,Risk of AKI compared to other antibiotics,acute kidney injury; systematic review and meta-analysis,up to 2.5 times greater
same,Direct binding to megalin (in words),megalin,megalin is bound specifically
CC1(C)C[C@@H]1C(=O)N/C(=C\CCCCSC[C@H](N)C(=O)O)C(=O)O [cilastatin],Competition of drug binding to megalin (in words),"megalin; binding of gentamicin, colistin, vancomycin and cisplatin",the binding of all the drugs listed above is competed by cilastatin
N.N.[Cl][Pt][Cl] [cisplatin],Direct binding to megalin (in words),megalin,megalin is bound specifically
CNC(C)C1CCC(N)C(OC2C(N)CC(N)C(OC3OCC(C)(O)C(NC)C3O)C2O)O1 (centres unmarked) [gentamicin],Direct binding to megalin (in words),megalin,megalin is bound specifically
colistin,Direct binding to megalin (in words),megalin,megalin is bound specifically
